{"source": "patent US8450357B2", "about": "“Compositions comprising an aryl pyrazole and/or a formamidine, methods and uses thereof” (Merial Limited, priority 2008, dated 2013)", "assay": "Stability of amitraz in solution, aged at 50° C., HPLC", "type": "physicochemical", "settings": "28 % (w/v) Amitraz in Methyl isobutyl ketone (MIK)", "procedure": "Formulation comprising amitraz in anisole (formulation L), butyl acetate (formulation M), methyl isobutyl ketone and ethyl benzoate were evaluated for stability by HPLC, similarly to the stability study for formulations comprising compound 1. Thus the formulations were tested for initial concentration of amitraz % (w/v) and aged at 50° C. for three months. The concentration of amitraz in each formulation was determined at 1 month, 2 months and 3 months to determine the stability of amitraz in each formulation."}
{"compound": "Cc1ccc(/N=C/N(C)/C=N/c2ccc(C)cc2C)c(C)c1", "note": "[Amitraz, amitraz]", "values": [{"measurement": "Amitraz % theoretical", "setting": "1 month at 50° C.", "result": 93, "unit": "% theoretical"}, {"measurement": "Amitraz % theoretical", "setting": "2 months at 50° C.", "result": 98, "unit": "% theoretical"}, {"measurement": "Amitraz % theoretical", "setting": "3 months at 50° C.", "result": 100, "unit": "% theoretical"}]}
